Measured values taken from patent publication US20020077350A1 (Ashni Naturaceuticals, Inc., priority 2000, published 2002).
Entries after “also recorded” stand apart in the source; their conditions may differ.

Legend:
COX-2 = format: cell-based, human; conditions: Jurkat cells, with and without arachidonic acid or arachidonic acid not specified
Method: COX-2 is inducible in the Jurkat cell by PMA.
Cell plating: The Jurkat cells are propagated in suspension according to the instructions of the supplier. For experimentation, cells are seeded from a log-phase culture at a density of 1×10^5 cells per mL in 100 mm plates, 20 mL per plate, 3 plates per treatment. Serum concentration in the test medium is maintained at 0.5%.
Complete transfers are accomplished in 25-30 minutes at 500 mA. Membranes used for blotting are blocked by incubating in TBS (Tris buffered saline, 50 mM tris, 150 mM NaCl, pH 7.5) containing 5% nonfat dry milk for 30 minutes at room temperature. COX-2 protein is visualized by incubation of the blots with the anti-COX-2 antibody in TBST (0.5% Tween 20 in TBS) for two hours and then a second incubation at room temperature with alkaline phosphatase-conjugated secondary antibody diluted 1:1000 in TBST for two hours. The enzymatic reaction is developed for 15 minutes. The molecular weight of COX-2 is estimated by adding a molecular weight standard to reference lanes and staining the membrane filters with amido black 10B.
Blots are translated into TIFF-formatted files with a Microtech 600GS scanner and quantified using Scan Analysis (BIOSOFT, Cambridge UK). Summary scans are then printed and peak heights are measured directly from the figure. One density unit (Du) is defined as one mm of the resulting peak height.
Appropriate controls receive solvent only. […] Twenty-four hours after treatment, the cells are harvested, lysed and western blotting is done for the determination of COX-2 protein expression.

[1] = gastrointestinal disturbance, nausea and vomiting, hypotension, edema; cited from earlier work

| SMILES | inhibition of COX-2 enzyme protein expression (COX-2) | patients showing some type of side effects [1] |
| --- | --- | --- |
| C=C1CC[C@@H]2[C@](C)(CO)[C@H](O)CC[C@@]2(C)[C@@H]1C/C=C1/C(=O)OC[C@H]1O [Andrographolide] | does not inhibit; also recorded: little effect |  |
| CC1(C)CC[C@]2(C(=O)O)CC[C@]3(C)C(=CC[C@@H]4[C@@]5(C)CC[C@H](O)C(C)(C)[C@@H]5CC[C@]43C)[C@@H]2C1 [Oleanolic acid] | does not inhibit |  |
| CC(C)[C@]12O[C@H]1[C@@H]1O[C@]13[C@]1(O[C@H]1C[C@H]1C4=C(CC[C@@]13C)C(=O)OC4)[C@@H]2O [Triptolide] |  | Approximately 28% |
| C[C@H]1[C@H](C)CC[C@]2(C(=O)O)CC[C@]3(C)C(=CC[C@@H]4[C@@]5(C)CC[C@H](O)C(C)(C)[C@@H]5CC[C@]43C)[C@H]12 [Ursolic acid] | does not inhibit |  |
